Measurements: patent publication US8299056B2 (Signal Pharmaceuticals, LLC, priority 2008, dated 2012)

molecular target: T1, Syk (Homo sapiens, UniProt P43405); assay: Syk HTRF assay; assay type: biochemical; settings: IC50 activity level, read-out: Activity Level
T1 construct: purchased Carna Biosciences
How it was run: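 HTRF kinase assay in HEPES pH 7.6 buffer with MgCl2, DTT and Triton X100; start mix of 87.5 μM ATP and 80 nM biotinylated peptide, 1 h at room temperature. EDTA stop, then Eu-anti-phosphotyrosine/streptavidin-DyLight 647 detection, read as 665/615 nm emission ratio.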

First: Fc1ccc(Nc2nc3cccc(N[C@H]4CCCNC4)n3n2)cc1 [Example 465, (S)-N^2-(4-fluorophenyl)-N^5-(piperidin-3-yl)-[1,2,4]triazolo[1,5-a]pyridine-2,5-diamine]
Second: OC(Cc1cccc2nc(Nc3ccc(F)cc3)nn12)C1CCNCC1 (centres unmarked) [Example 425, 2-(2-(4-fluorophenylamino)-[1,2,4]triazolo[1,5-a]pyridin-5-yl)-1-(piperidin-4-yl)ethanol]
The IC50 of the first is lower: 0.005 to 250 nM for the first, 1000 to 10000 nM for the second.

`CN(C)c1cccc2nc(Nc3ccc4c(c3)NC(=O)C4(C)C)nn12` [Example 566, 6-(5-(dimethylamino)-[1,2,4]triazolo[1,5-a]pyridin-2-ylamino)-3,3-dimethylindolin-2-one] and `CC(C)Nc1cccc2nc(Nc3ccc4c(c3)NC(=O)C4(C)C)nn12` [Example 549, 6-(5-(isopropylamino)-[1,2,4]triazolo[1,5-a]pyridin-2-ylamino)-3,3-dimethylindolin-2-one] fall in the same range of IC50: 0.005 to 250 nM for the first, 0.005 to 250 nM for the second.

Compared with `c1ccc(Nc2nc3cccc(CC4CCCNC4)n3n2)cc1` (centres unmarked) [Example 478, N-phenyl-5-(piperidin-3-ylmethyl)-[1,2,4]triazolo[1,5-a]pyridin-2-amine], `c1cc(CC2CCOCC2)n2nc(Nc3ccc(-c4nc[nH]n4)cc3)nc2c1` [Example 557, N-(4-(1H-1,2,4-triazolo-3-yl)phenyl)-5-((tetrahydro-2H-pyran-4-yl)methyl)-[1,2,4]triazolo[1,5-a]pyridin-2-amine] is higher in IC50: 250 to 500 nM for the first, 500 to 1000 nM for the second. The first is the more potent here.

`CNC(=O)c1ccc(Nc2nc3cccc(NC4CCOCC4)n3n2)cc1` [Example 456, N-methyl-4-(5-(tetrahydro-2H-pyran-4-ylamino)-[1,2,4]triazolo[1,5-a]pyridin-2-ylamino)benzamide] and `CNC(=O)c1ccc(Nc2nc3cccc(NC4CCOC4)n3n2)cc1` (centres unmarked) [Example 441, N-methyl-4-(5-(tetrahydrofuran-3-ylamino)-[1,2,4]triazolo[1,5-a]pyridin-2-ylamino)benzamide] fall in the same range of IC50: 1000 to 10000 nM for the first, 1000 to 10000 nM for the second.

`O[C@H]1CC[C@@H](Nc2cccc3nc(Nc4ccc(-c5nc[nH]n5)cc4)nn23)CC1` [Example 567, cis-4-(2-(4-(1H-1,2,4-triazol-3-yl)phenylamino)-[1,2,4]triazolo[1,5-a]pyrridin-5-ylamino)cyclohexanol] and `OCc1nc2ccc(-c3cccc4nc(Nc5ccc(C(F)(F)F)cc5)nn34)cc2[nH]1` [Example 409, (6-(2-(4-(trifluoromethyl)phenylamino)-[1,2,4]triazolo[1,5-a]pyridin-5-yl)-1H-benzo[d]imidazol-2-yl)methanol] fall in the same range of IC50: 0.005 to 250 nM for the first, 0.005 to 250 nM for the second.

First: NCCN1Cc2cc(-c3cccc4nc(Nc5ccccc5)nn34)ccc2C1=O [Example 494, 2-(2-aminoethyl)-5-(2-(phenylamino)-[1,2,4]triazolo[1,5-a]pyridin-5-yl)isoindolin-1-one]
Second: CC1(C)C(=O)Nc2cc(Nc3nc4cccc(CC5CCOC5)n4n3)ccc21 (single isomer, unassigned; enantiomer 1) [Example 561, 3,3-dimethyl-6-(5-((tetrahydrofuran-3-yl)methyl)-[1,2,4]triazolo[1,5-a]pyridin-2-ylamino)indolin-2-one (enantiomer 1)]
The IC50 of the first is higher: 500 to 1000 nM for the first, 0.005 to 250 nM for the second. The second is the more potent here.

same assay, conditions: activity levels A-D, read-out: Activity Level (IC50 in the Syk HTRF assay)

Compared with `FC(F)(F)c1ccc(Nc2nc3cccc(CN4CCNCC4)n3n2)cc1` [Example 393, 5-(piperazin-1-ylmethyl)-N-(4-(trifluoromethyl)phenyl)-[1,2,4]triazolo[1,5-a]pyridin-2-amine], `OC[C@H]1CCN(c2cccc3nc(Nc4ccc(C(F)(F)F)cc4)nn23)C1` [Example 327, (S)-(1-(2-(4-(trifluoromethyl)phenylamino)-[1,2,4]triazolo[1,5-a]pyridin-5-yl)pyrrolidin-3-yl)methanol] is higher in IC50: 0.005 to 250 nM for the first, 250 to 500 nM for the second. The first is the more potent here.

`CNC(=O)c1ccc(Nc2nc3cccc(-c4ccc5nc(C)[nH]c5c4)n3n2)cc1` [Example 244, N-methyl-4-(5-(2-methyl-1H-benzo[d]imidazol-6-yl)-[1,2,4]triazolo[1,5-a]pyridin-2-ylamino)benzamide] and `O[C@H]1CC[C@@H](Nc2cccc3nc(Nc4ccc(Cl)cc4)nn23)CC1` [Example 353, cis-4-(2-(4-chlorophenylamino)-[1,2,4]triazolo[1,5-a]pyridin-5-ylamino)cyclohexanol] fall in the same range of IC50: 0.005 to 250 nM for the first, 0.005 to 250 nM for the second.

First: COc1cncc(Nc2nc3cccc(N[C@H]4CC[C@@H](O)CC4)n3n2)c1 [Example 368, cis-4-(2-(5-methoxypyridin-3-ylamino)-[1,2,4]triazolo[1,5-a]pyridin-5-ylamino)cyclohexanol]
Second: Cc1cc(C)cc(Nc2nc3cccc(N[C@H]4CC[C@@H](O)CC4)n3n2)c1 [Example 314, cis-4-(2-(3,5-dimethylphenylamino)-[1,2,4]triazolo[1,5-a]pyridin-5-ylamino0)cyclohexaol]
The IC50 of the first is higher: 500 to 1000 nM for the first, 0.005 to 250 nM for the second. The second is the more potent here.

`O[C@@H]1CCCN(c2cccc3nc(Nc4ccc(C(F)(F)F)cc4)nn23)C1` [Example 309, (R)-1-(2-(4-(trifluoromethyl)phenylamino)-[1,2,4]triazolo[1.5-a]pyridin-5-yl)piperidin-3-ol] and `O[C@@H]1CCN(c2cccc3nc(Nc4ccc(C(F)(F)F)cc4)nn23)C1` [Example 332, (R)-1-(2-(4-(trifluoromethyl)phenylamino)-[1,2,4]triazolo[1,5-a]pyridin-5-yl)pyrrolidin-3-ol] fall in the same range of IC50: 500 to 1000 nM for the first, 500 to 1000 nM for the second.

`OC[C@H]1CCCC[C@H]1Nc1cccc2nc(Nc3ccc(C(F)(F)F)cc3)nn12` (stereo in doubt) [Example 356, (1S,2R)-(2-(2-(4-(trifluoromethyl)phenylamino)-[1,2,4]triazolo[1,5-a]pyridin-5-ylamino)cyclohexyl)methanol] gave an IC50 of 1000 to 10000 nM.

same assay, conditions: read-out: Activity Level (Syk HTRF assay IC50)

`Oc1cccc(-c2cccc3nc(Nc4ccccc4)nn23)c1` [Example 92] and `NC(=O)c1ccc(Nc2nc3cccc(-c4ccccc4)n3n2)cc1` [Example 88] fall in the same range of IC50: 0.005 to 250 nM for the first, 0.005 to 250 nM for the second.

`COCCn1nc(C)c2ccc(Nc3nc4cccc(N[C@H]5CC[C@@H](O)CC5)n4n3)cc21` [Example 194, cis-4-(2-(1-(2-methoxyethyl)-3-methyl-1H-indazol-6-ylamino)-[1,2,4]triazolo[1,5-a]pyridin-5-ylamino)cyclohexanol] and `Cc1n[nH]c2ccc(Nc3nc4cccc(N[C@@H]5CCOC5)n4n3)cc12` [compound 115] fall in the same range of IC50: 250 to 500 nM for the first, 250 to 500 nM for the second.

`CN(C)Cc1nc2ccc(Nc3nc4cccc(-c5ccccc5)n4n3)cc2[nH]1` [compound 31, N-(2-((dimethylamino)methyl)-1H-benzo[d]imidazol-6-yl)-5-phenyl-[1,2,4]triazolo[1,5-a]pyridin-2-amine] and `c1ccc(-c2cccc3nc(Nc4ccc5nn[nH]c5c4)nn23)cc1` [compound 49, N-(5-phenyl-[1,2,4]triazolo[1,5-a]pyridin-2-yl)-1H-benzo[d][1,2,3]triazol-6-amine] fall in the same range of IC50: 0.005 to 250 nM for the first, 0.005 to 250 nM for the second.

`CC1(C)C(=O)Nc2cc(Nc3nc4cccc(N[C@H]5CC[C@@](C)(O)CC5)n4n3)ccc21` [Example 163, cis-6-(5-(4-hydroxy-4-methylcyclohexylamino)-[1,2,4]triazolo[1,5-a]pyridin-2-ylamino)-3,3-dimethylindolin-2-one] and `CC1(C)C(=O)Nc2cc(Nc3nc4cccc(N[C@H]5CC[C@](C)(O)CC5)n4n3)ccc21` [Example 162, trans-6-(5-(4-hydroxy-4-methylcyclohexylamino)-[1,2,4]triazolo[1,5-a]pyridin-2-ylamino)-3,3-dimethylindolin-2-one] fall in the same range of IC50: 0.005 to 250 nM for the first, 0.005 to 250 nM for the second.

`Cc1n[nH]c2cc(Nc3nc4cccc(CN5CCCC(F)(F)C5)n4n3)ccc12` [Example 184, 5-((3,3-difluoropiperidin-1-yl)methyl)-N-(3-methyl-1H-indazol-6-yl)-[1,2,4]triazolo[1,5-a]pyridin-2-amine] and `Cc1cc(Nc2nc3cccc(Cc4ccnc(O)c4)n3n2)cc2[nH]ncc12` [compound 124, 4-((2-(4-methyl-1H-indazol-6-ylamino)-[1,2,4]triazolo[1,5-a]pyridin-5-yl)methyl)pyridine-2-ol] fall in the same range of IC50: 0.005 to 250 nM for the first, 0.005 to 250 nM for the second.

First: Cn1nc(NC2CCOCC2)c2ccc(Nc3nc4cccc(CC5CCOCC5)n4n3)cc21 [Example 99]
Second: Cc1cc(Nc2nc3cccc(NC4CCOCC4)n3n2)cc2[nH]nc(C)c12 [compound 108]
The IC50 of the first is higher: 1000 to 10000 nM for the first, 0.005 to 250 nM for the second.

First: Oc1cccc(-c2cccc3nc(Nc4ccc(-c5ncc[nH]5)cc4)nn23)c1 [compound 16, 3-(2-(4-(1H-imidazol-2-yl)phenylamino)-[1,2,4]triazolo[1,5-a]pyridin-5-yl)phenol]
Second: CNC(=O)c1ccc(Nc2nc3cccc(-c4cccc(F)c4)n3n2)cc1 [compound 12, 4-(5-(3-fluorophenyl)-[1,2,4]triazolo[1,5-a]pyridin-2-ylamino)-N-methylbenzamide]
The IC50 of the first is lower: 0.005 to 250 nM for the first, 250 to 500 nM for the second. The first is the more potent here.

`CNC(=O)c1ccc(Nc2nc3cccc(-c4ccc(-c5c[nH]cn5)cc4)n3n2)cc1` [compound 9, 4-(5-(4-(1H-imidazol-4-yl)phenyl)-[1,2,4]triazolo[1,5-a]pyridin-2-ylamino)-N-methylbenzamide] and `Nc1noc2ccc(Nc3nc4cccc(-c5ccccc5)n4n3)cc12` [compound 42] fall in the same range of IC50: 0.005 to 250 nM for the first, 0.005 to 250 nM for the second.

`CC1(C)C(=O)Nc2cc(Nc3nc4cccc(Cc5cc[nH]c(=O)c5)n4n3)ccc21` [Example 156, 3,3-dimethyl-6-(5-((2-oxo-1,2-dihydropyridin-4-yl)methyl)-[1,2,4]triazolo[1,5-a]pyridin-2-ylamino)indolin-2-one] and `CN1C(=O)C(C)(C)c2ccc(Nc3nc4cccc(NC5CCOC5)n4n3)cc21` (stereo in doubt) [compound 123, (R)-1,3,3-trimethyl-6-(5-(tetrahydrofuran-3-ylamino)-[1,2,4]triazolo[1,5-a]pyridin-2-ylamino)indolin-2-one] fall in the same range of IC50: 0.005 to 250 nM for the first, 0.005 to 250 nM for the second.

`O=S1(=O)NCc2ccc(Nc3nc4cccc(-c5ccccc5)n4n3)cc21` [compound 37] and `OCc1nc2ccc(Nc3nc4cccc(-c5cccc(F)c5)n4n3)cc2[nH]1` [compound 3, (6-(5-(3-fluorophenyl)-[1,2,4]triazolo[1,5-a]pyridin-2-ylamino)-1H-benzo[d]imidazol-2-yl)methanol] fall in the same range of IC50: 0.005 to 250 nM for the first, 0.005 to 250 nM for the second.
